Test results: patent US20240116892A1, “HETEROCYCLIC AMIDE AND UREA COMPOUNDS AS JAK2 INHIBITORS” (Ajax Therapeutics, Inc., priority 2022, published 2024)

Biological target: JAK2 (JH1 domain-catalytic, Y1007F, Y1008F) kinase (Homo sapiens (Human), UniProt O60674, Y1007F/Y1008F)
Experiment: JAK2 JH1 Domain Binding Assay
Details: qPCR readout
Procedure: JAK2 (JH1 domain-catalytic, Y1007F, Y1008F) kinase was expressed as N-terminal fusion to the DNA binding domain of NFkB in transiently transfected HEK293 cells and subsequently tagged with DNA for qPCR detection. Streptavidin-coated magnetic beads were treated with biotinylated small molecule ligands for 30 minutes at room temperature to generate affinity resins for kinase assays. The liganded beads were blocked with excess biotin and washed with blocking buffer (SeaBlock (Pierce), 1% BSA, 0.05% Tween 20, 1 mmol/L DTT) to remove unbound ligand and to reduce nonspecific phage binding. Binding reactions were assembled by combining kinases, liganded affinity beads, and test compounds in 1× binding buffer (1× PBS, 0.05% Tween 20, 0.1% BSA, 1 mmol/L DTT). Test compound was prepared as 111× stocks in 100% DMSO and directly diluted into the assay wells. All reactions were performed in polypropylene 384-well plates in a final volume of 0.02 mL. The assay plates were incubated at room temperature with shaking for 1 hour and the affinity beads were washed with wash buffer (1× PBS, 0.05% Tween 20). The beads were then re-suspended in elution buffer (1× PBS, 0.05% Tween 20, 0.5 μmol/L non-biotinylated affinity ligand) and incubated at room temperature with shaking for 30 minutes. The kinase concentration in the eluate was measured by qPCR.

Sequence of JAK2 (JH1 domain-catalytic, Y1007F, Y1008F) kinase (O60674 849-1124 Y1007F/Y1008F): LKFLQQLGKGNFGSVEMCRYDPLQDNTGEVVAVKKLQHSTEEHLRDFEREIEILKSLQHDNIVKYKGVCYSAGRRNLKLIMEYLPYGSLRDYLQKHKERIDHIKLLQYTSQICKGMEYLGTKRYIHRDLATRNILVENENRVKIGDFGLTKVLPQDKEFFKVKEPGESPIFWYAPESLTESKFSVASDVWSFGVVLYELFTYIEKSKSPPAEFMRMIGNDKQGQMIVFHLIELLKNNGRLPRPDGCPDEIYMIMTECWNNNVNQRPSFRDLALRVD

| Kd | Compound |
| --- | --- |
| < 10 nM | CN(C(=O)Nc1cc(C2CC2)cn([C@H]2CCCOC2)c1=O)C1CCN(c2cnc3[nH]ncc3c2)CC1 (single isomer, unassigned) [Example I-183-a, (S)- or (R)-1-(1-(1H-pyrazolo[3,4-b]pyridin-5-yl)piperidin-4-yl)-3-(5-cyclopropyl-2-oxo-1-(tetrahydro-2H-pyran-3-yl)-1,2-dihydropyridin-3-yl)-1-methylurea] |
| < 10 nM | CN(C(=O)Nc1cc(C(F)(F)F)cn(C)c1=O)[C@H]1CCN(c2cnc3[nH]ncc3c2)C[C@@H]1F (stereo in doubt) [Example I-61-a, 1-((3S,4S)-3-fluoro-1-(1H-pyrazolo[3,4-b]pyridin-5-yl)piperidin-4-yl)-1-methyl-3-(1-methyl-2-oxo-5-(trifluoromethyl)-1,2-dihydropyridin-3-yl)urea] |
| < 10 nM | CN(C(=O)Nc1cc(C(F)(F)F)cn(C)c1=O)[C@H]1CCN(c2cnc3[nH]ncc3c2)C[C@H]1F (stereo in doubt) [Example I-62-a, 1-((3R,4S)-3-fluoro-1-(1H-pyrazolo[3,4-b]pyridin-5-yl)piperidin-4-yl)-1-methyl-3-(1-methyl-2-oxo-5-(trifluoromethyl)-1,2-dihydropyridin-3-yl)urea] |
| 10 to 50 nM | CN(C(=O)Nc1cc(C(F)(F)F)cn(C)c1=O)[C@H]1CCN(c2cnc3[nH]n(C)c(=O)c3c2)CC1F (stereo in doubt) [Example I-90-a, 1-((3R,4S)-3-fluoro-1-(2-methyl-3-oxo-2,3-dihydro-1H-pyrazolo[3,4-b]pyridin-5-yl)piperidin-4-yl)-1-methyl-3-(1-methyl-2-oxo-5-(trifluoromethyl)-1,2-dihydropyridin-3-yl)urea] |
| < 10 nM | CN(C(=O)Nc1cc(C(F)(F)F)cn(C)c1=O)C1CCN(c2cnc3[nH]ccc3c2)CC1 [Example I-21, 1-(1-(1H-pyrrolo[2,3-b]pyridin-5-yl)piperidin-4-yl)-1-methyl-3-(1-methyl-2-oxo-5-(trifluoromethyl)-1,2-dihydropyridin-3-yl)urea] |
| < 10 nM | CC(=O)Nc1cnc(N2CCC(N(C)C(=O)Nc3cc(C(F)(F)F)cc(C)n3)CC2)cn1 [Example I-23, N-(5-(4-(1-methyl-3-(6-methyl-4-(trifluoromethyl)pyridin-2-yl)ureido)piperidin-1-yl)pyrazin-2-yl)acetamide] |
| < 10 nM | CN(C(=O)Nc1cc(C(F)(F)F)cn(C)c1=O)C1CCN(c2ccc(NC(=O)C3CC3)nc2)CC1 [Example I-24, N-(5-(4-(1-methyl-3-(1-methyl-2-oxo-5-(trifluoromethyl)-1,2-dihydropyridin-3-yl)ureido)piperidin-1-yl)pyridin-2-yl)cyclopropanecarboxamide] |
| < 10 nM | CN(C(=O)Nc1cc(C(F)(F)F)cn(C)c1=O)C1CCN(c2cnc3[nH]c(C4CC4)cc3n2)CC1 [Example I-25, 1-(1-(6-cyclopropyl-5H-pyrrolo[2,3-b]pyrazin-2-yl)piperidin-4-yl)-1-methyl-3-(1-methyl-2-oxo-5-(trifluoromethyl)-1,2-dihydropyridin-3-yl)urea] |
| < 10 nM | CN(C(=O)Nc1cc(C(F)(F)F)cn(C)c1=O)C1CCN(c2cnc3[nH]ncc3c2)CC1 [Example I-26, 1-(1-(1H-pyrazolo[3,4-b]pyridin-5-yl)piperidin-4-yl)-1-methyl-3-(1-methyl-2-oxo-5-(trifluoromethyl)-1,2-dihydropyridin-3-yl)urea] |

Further lines, the molecule ahead of its results:

| Compound | Kd |
| --- | --- |
| Cc1cc(NC(=O)CC2CCN(c3cnccn3)CC2)cc(C(F)(F)F)c1 [Example I-1, N-(3-methyl-5-(trifluoromethyl)phenyl)-2-(1-(pyrazin-2-yl)piperidin-4-yl)acetamide] | 1000 to 5000 nM |
| CC(=O)Nc1cnc(N2CCC(CC(=O)Nc3cc(C)cc(C(F)(F)F)c3)CC2)cn1 [Example I-2, 2-(1-(5-acetamidopyrazin-2-yl)piperidin-4-yl)-N-(3-methyl-5-(trifluoromethyl)phenyl)acetamide] | 50 to 1000 nM |
| CC(=O)Nc1cnc(N2CCC(CC(=O)Nc3cc(C(F)(F)F)cn(C)c3=O)CC2)cn1 [Example I-3, 2-(1-(5-acetamidopyrazin-2-yl)piperidin-4-yl)-N-(1-methyl-2-oxo-5-(trifluoromethyl)-1,2-dihydropyridin-3-yl)acetamide] | 50 to 1000 nM |
| Cc1cc(NC(=O)C2(C3CCN(c4cnccn4)CC3)CC2)cc(C(F)(F)F)c1 [Example I-4, N-(3-methyl-5-(trifluoromethyl)phenyl)-1-(1-(pyrazin-2-yl)piperidin-4-yl)cyclopropane-1-carboxamide] | 50 to 1000 nM |
| Cn1cc(C(F)(F)F)cc(NC(=O)C2(C3CCN(c4cnccn4)CC3)CC2)c1=O [Example I-5, N-(1-methyl-2-oxo-5-(trifluoromethyl)-1,2-dihydropyridin-3-yl)-1-(1-(pyrazin-2-yl)piperidin-4-yl)cyclopropane-1-carboxamide] | 50 to 1000 nM |
| CC(=O)Nc1cnc(N2CCC(CC(=O)Nc3cccc(C(F)(F)F)c3)CC2)cn1 [Example I-6, 2-(1-(5-acetamidopyrazin-2-yl)piperidin-4-yl)-N-(3-(trifluoromethyl)phenyl)acetamide] | 50 to 1000 nM |
| CC(=O)Nc1cnc(N2CCC(CC(=O)Nc3cc(CN4CCN(C)CC4)cc(C(F)(F)F)c3)CC2)cn1 [Example I-7, 2-(1-(5-acetamidopyrazin-2-yl)piperidin-4-yl)-N-(3-((4-methylpiperazin-1-yl)methyl)-5-(trifluoromethyl)phenyl)acetamide] | 1000 to 5000 nM |
| Cc1cc(NC(=O)N(C)C2CCN(c3cnccn3)CC2)cc(C(F)(F)F)c1 [Example I-8, 1-methyl-3-(3-methyl-5-(trifluoromethyl)phenyl)-1-(1-(pyrazin-2-yl)piperidin-4-yl)urea] | 10 to 50 nM |
| CN(C(=O)Nc1cc(N2CCC(O)CC2)cc(C(F)(F)F)c1)C1CCN(c2cnccn2)CC1 [Example I-9, 3-(3-(4-hydroxypiperidin-1-yl)-5-(trifluoromethyl)phenyl)-1-methyl-1-(1-(pyrazin-2-yl)piperidin-4-yl)urea] | 1000 to 5000 nM |
| CN(C(=O)Nc1cc(C(F)(F)F)cn(C)c1=O)C1CCN(c2cnccn2)CC1 [Example I-10, 1-methyl-3-(1-methyl-2-oxo-5-(trifluoromethyl)-1,2-dihydropyridin-3-yl)-1-(1-(pyrazin-2-yl)piperidin-4-yl)urea] | 10 to 50 nM |
| Cc1cc(NC(=O)N(C)C2CCN(c3cnc4[nH]ccc4n3)CC2)cc(C(F)(F)F)c1 [Example I-11, 1-(1-(5H-pyrrolo[2,3-b]pyrazin-2-yl)piperidin-4-yl)-1-methyl-3-(3-methyl-5-(trifluoromethyl)phenyl)urea] | < 10 nM |
| CC(=O)Nc1ccc(N2CCC(N(C)C(=O)Nc3cc(C)cc(C(F)(F)F)c3)CC2)cn1 [Example I-12, N-(5-(4-(1-methyl-3-(3-methyl-5-(trifluoromethyl)phenyl)ureido)piperidin-1-yl)pyridin-2-yl)acetamide] | < 10 nM |
| CC(=O)Nc1cnc(N2CCC(N(C)C(=O)Nc3cc(C)cc(C(F)(F)F)c3)CC2)cn1 [Example I-13, N-(5-(4-(1-methyl-3-(3-methyl-5-(trifluoromethyl)phenyl)ureido)piperidin-1-yl)pyrazin-2-yl)acetamide] | < 10 nM |
| CC(=O)Nc1cnc(N2CCC(N(C)C(=O)Nc3cc(C(F)(F)F)cn(C)c3=O)CC2)cn1 [Example I-14, N-(5-(4-(1-methyl-3-(1-methyl-2-oxo-5-(trifluoromethyl)-1,2-dihydropyridin-3-yl)ureido)piperidin-1-yl)pyrazin-2-yl)acetamide] | < 10 nM |
| CN(C(=O)Nc1cc(C(F)(F)F)cn(C)c1=O)C1CCN(c2cnc3[nH]ccc3n2)CC1 [Example I-15, 1-(1-(5H-pyrrolo[2,3-b]pyrazin-2-yl)piperidin-4-yl)-1-methyl-3-(1-methyl-2-oxo-5-(trifluoromethyl)-1,2-dihydropyridin-3-yl)urea] | < 10 nM |
| CC(=O)Nc1cnc(N2CCC(N(C)C(=O)Nc3cccc(C(F)(F)F)c3)CC2)cn1 [Example I-16, N-(5-(4-(1-methyl-3-(3-(trifluoromethyl)phenyl)ureido)piperidin-1-yl)pyrazin-2-yl)acetamide] | < 10 nM |
| Cc1cc(NC(=O)N(C)C2CCN(c3cnc4[nH]ncc4c3)CC2)cc(C(F)(F)F)c1 [Example I-17, 1-(1-(1H-pyrazolo[3,4-b]pyridin-5-yl)piperidin-4-yl)-1-methyl-3-(3-methyl-5-(trifluoromethyl)phenyl)urea] | < 10 nM |
| CN(C(=O)Nc1cc(C(F)(F)F)cn(C)c1=O)C1CCN(c2cnc(NC(=O)C3CC3)cn2)CC1 [Example I-18, N-(5-(4-(1-methyl-3-(1-methyl-2-oxo-5-(trifluoromethyl)-1,2-dihydropyridin-3-yl)ureido)piperidin-1-yl)pyrazin-2-yl)cyclopropanecarboxamide] | < 10 nM |
| CC(=O)Nc1cnc(N2CCC(N(C)C(=O)Nc3cc(CN4CCN(C)CC4)cc(C(F)(F)F)c3)CC2)cn1 [Example I-19, N-(5-(4-(1-methyl-3-(3-((4-methylpiperazin-1-yl)methyl)-5-(trifluoromethyl)phenyl)ureido)piperidin-1-yl)pyrazin-2-yl)acetamide] | 10 to 50 nM |
| CC(=O)Nc1ccc(N2CCC(N(C)C(=O)Nc3cc(C(F)(F)F)cn(C)c3=O)CC2)cn1 [Example I-20, N-(5-(4-(1-methyl-3-(1-methyl-2-oxo-5-(trifluoromethyl)-1,2-dihydropyridin-3-yl)ureido)piperidin-1-yl)pyridin-2-yl)acetamide] | < 10 nM |
